This passage reports MIC results from US20070027130A1, “Tricyclic 6-alkylidene-penem beta-lactamase inhibitors and beta-lactam antibiotic combination: a broad spectrum antibiotic” (priority 2005, published 2007).

SMILES strings stand for the structures. In brackets after ≈: the same amount, converted by molar mass. Read-outs that look alike come from different tables or passages of the source.

What all share (experiment): MIC microbroth dilution
Holding throughout (format): cell-based
In general terms: In broth dilution the organism is exposed to a series of concentrations in liquid medium.

Assay [1] deals with E. coli GC 1499 (TEM-4 + TEM-1). To be noted: Escherichia coli, β-lactamase class A, A (ESBL), MHBII, 35° C. 18 hr, read-out: Minimal Inhibitory Concentration. The procedure, abridged:
(§1)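 MHBII, NCCLS microbroth dilution; 35 C, ambient air, 18-22 hours.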

Assay [2] concerns E. coli LSU 80-8 GC 6265 TEM-1. To be noted: Escherichia coli, read-out: MIC* (minimum inhibitory concentration). The procedure, abridged:
as §1

For assay [3], the system named is P. aeruginosa PT 9025 PTZ-R. To be noted: Pseudomonas aeruginosa, PT9025PTZR, 18 h, read-out: Minimal Inhibitory Concentration. The method, boiled down:
as §1

The test system of assay [4] is K. pn GC 3057 (CAZ-R; P/T-R). To be noted: Klebsiella pneumoniae, β-lactamase class A, A (ESBL), MHBII, 35° C. 18 hr, read-out: Minimal Inhibitory Concentration. The procedure, abridged: as §1
The test system of assay [5] is E. cloacae GC 4142 (AmpC). The note with it: Enterobacter cloacae. The procedure, abridged: as §1
The test system of assay [6] is K. pneumoniae GC 7632 TEM-1 KPC-2, SHV-7, SHV-12. To be noted: Klebsiella pneumoniae, β-lactamase class A, A (Cb'ase), A (ESBL), MHBII, 35° C. 18 hr, read-out: Minimal Inhibitory Concentration. The method, boiled down: as §1
Assay [7] concerns E. cloacae GC 1477 (AmpC). The note with it: Enterobacter cloacae, β-lactamase class C, MHBII, 35° C. 18 hr, read-out: Minimal Inhibitory Concentration. The method, boiled down: as §1

For `CO/N=C(\C(=O)N[C@@H]1C(=O)N2C(C(=O)[O-])=C(C[N+]3(C)CCCC3)CS[C@H]12)c1csc(N)n1` [Cefepime], the MIC in assay [1] was over 16 µg/mL; in assay [2] it was 0.06 µg/mL (≈ 0.125 µM); in assay [3], over 16 µg/mL; in assay [4], 16 µg/mL (≈ 33.3 µM); in assay [5] (E. cloacae GC 4142, β-lactamase class C, MHBII, 35° C. 18 hr, read-out: Minimal Inhibitory Concentration), 8 µg/mL (≈ 16.6 µM); in assay [5] (Table 3, E. cloacae GC4142 AmpC, read-out: MIC* (minimum inhibitory concentration)) it was 16 µg/mL (≈ 33.3 µM). In addition, the MIC is over 16 µg/mL in assay [6] and 4 µg/mL (≈ 8.32 µM) in assay [7].
